According to US9029389B2 (Institut Pasteur Korea, priority 2011, dated 2015):
pIC50: −log10 of the molar value.

What was measured:
Human 5-lipoxygenase = molecular target: T1, Human 5-lipoxygenase (Homo sapiens, UniProt P09917); assay: Activity of compounds against 5-LO enzyme (LTB4 measurement and/or fluorescence method); format: biochemical; details: for inhibition at 10 µM: 5-LO, single concentration of 10 uM in duplicate; for pIC50: 6 or 11 point dose response in duplicate
T1 construct: purchased Cayman 60402; host or cells: insect cells
T1 sequence (P09917 1-674): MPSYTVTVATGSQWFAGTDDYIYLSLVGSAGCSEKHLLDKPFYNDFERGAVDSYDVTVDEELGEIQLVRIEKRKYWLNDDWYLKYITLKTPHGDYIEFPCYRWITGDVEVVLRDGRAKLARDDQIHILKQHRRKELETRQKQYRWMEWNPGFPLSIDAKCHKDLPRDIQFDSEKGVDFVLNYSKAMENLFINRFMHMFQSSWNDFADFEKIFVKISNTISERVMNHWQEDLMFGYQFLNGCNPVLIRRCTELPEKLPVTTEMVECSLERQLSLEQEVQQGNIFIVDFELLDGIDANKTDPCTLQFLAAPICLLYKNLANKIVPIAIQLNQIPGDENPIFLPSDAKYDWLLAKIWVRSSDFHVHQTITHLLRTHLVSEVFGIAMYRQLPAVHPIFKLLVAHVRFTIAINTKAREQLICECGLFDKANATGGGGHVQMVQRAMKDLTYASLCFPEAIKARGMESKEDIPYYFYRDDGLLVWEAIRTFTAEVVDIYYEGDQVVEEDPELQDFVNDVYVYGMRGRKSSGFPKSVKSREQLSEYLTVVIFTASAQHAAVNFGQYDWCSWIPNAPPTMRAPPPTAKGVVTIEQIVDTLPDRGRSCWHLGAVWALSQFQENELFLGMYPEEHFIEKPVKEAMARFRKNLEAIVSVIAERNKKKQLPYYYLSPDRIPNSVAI
How it was run: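 Two read-outs: LTB4 measured by EIA and/or LC/MS/MS with LTB4-d4 standard after 15 min RT compound preincubation with insect-cell 5-LO and a 5 min 37 °C reaction on 3 uM arachidonic acid (0.1 mM ATP, pH 7.4). The room-temperature fluorescence format used 20 uM H2DCFDA, 100 uM ATP, 3 uM arachidonic acid, 5 min; IC50 from 6/11-point curves.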

Compound | inhibition at 10 µM (Human 5-lipoxygenase) | melting point | pIC50 (Human 5-lipoxygenase)
CCc1nc2ccc(Cl)cn2c1C(=O)NCc1cc2cc(Cl)ccc2s1 [compound 361, 6-chloro-N-((5-chlorobenzo[b]thiophen-2-yl)methyl)-2-ethylimidazo[1,2-a]pyridine-3-carboxamide] | < 40% | > 220 °C | 
CCc1nc2ccccn2c1C(=O)NCc1ccc(N2CCN(c3ccc(OC(F)(F)F)cc3)CC2)cc1 [compound 181, 2-Ethyl-N-(4-(4-(4-(trifluoromethoxy)phenyl)piperazin-1-yl)benzyl)imidazo[1,2-a]pyridine-3-carboxamide] | > 69% | 178 to 179 °C | 4.70 to 6.00
CCc1nc2ccccn2c1C(=O)NCc1ccc(N2CCN(c3ccc(F)cc3)CC2)cc1 [compound 227, 2-Ethyl-N-(4-(4-(4-fluorophenyl)piperazin-1-yl)benzyl)imidazo[1,2-a]pyridine-3-carboxamide] | > 69% | 189.2 °C | 4.70 to 6.00
CCc1nc2ccc(Cl)cn2c1C(=O)NCc1nc2ccc(Cl)cc2n1C [compound 367, 6-chloro-N-((6-chloro-1-methyl-1H-benzo[d]imidazol-2-yl)methyl)-2-ethylimidazo[1,2-a]pyridine-3-carboxamide] | < 40% | > 220 °C | 
CCc1nc2ccc(Cl)cn2c1C(=O)NCc1ccc(N2CCC(COc3ccc(OC(F)(F)F)cc3)CC2)cc1 [compound 213, 6-chloro-2-ethyl-N-(4-(4-((4-(trifluoromethoxy)phenoxy)methyl)piperidin-1-yl)benzyl)imidazo[1,2-a]pyridine-3-carboxamide] | < 40% | 183.6 °C | 
CCc1nc2ccc(Cl)cn2c1C(=O)NCc1cccc(OCc2ccc(OC(F)(F)F)cc2)c1 [compound 353, 6-chloro-2-ethyl-N-(3-((4-(trifluoromethoxy)benzyl)oxy)benzyl)imidazo[1,2-a]pyridine-3-carboxamide] | < 40% | > 142.7 °C (dec.) | 
CCc1nc2cc(Cl)ccn2c1C(=O)NCc1ccc(N2CCC3CCCCC3C2)cc1 (stereo not shown) [compound 222, 7-Chloro-2-ethyl-N-(4-(octahydroisoquinolin-2(1H)-yl)benzyl)imidazo[1,2-a]pyridine-3-carboxamide] | < 40% | 174.2 °C | 
CCc1nc2ccc(Cl)cn2c1C(=O)NCc1ccc(N2CCN(Cc3ccc(OC(F)(F)F)cc3)CC2)cc1 [compound 156, 6-Chloro-2-ethyl-N-(4-(4-(4-(trifluoromethoxy)benzyl)piperazin-1-yl)benzyl)imidazo[1,2-a]pyridine-3-carboxamide] | < 40% | 138.1 to 138.7 °C | 
CCc1nc2ccc(Cl)cn2c1C(=O)OCc1ccc(-c2ccccc2)cc1 [compound 162, [1,1′-Biphenyl]-4-ylmethyl 6-chloro-2-ethylimidazo[1,2-a]pyridine-3-carboxylate] | 40 to 69% | 122.3 to 123 °C | 
CCc1nc2ccc(Cl)cn2c1COc1ccc(N2CCN(c3ccc(F)cc3)CC2)cc1 [compound 399, 6-chloro-2-ethyl-3-((4-(4-(4-fluorophenyl)piperazin-1-yl)phenoxy)methyl)imidazo[1,2-a]pyridine] |  | 161.3 °C | > 6.00
CCc1nc2ccc(Cl)cn2c1C(=O)NCc1ccc(N2CCC(CO)CC2)cc1 [compound 230, 6-Chloro-2-ethyl-N-(4-(4-(hydroxymethyl)piperidin-1-yl)benzyl)imidazo[1,2-a]pyridine-3-carboxamide] | < 40% | 161.1 °C | 
CCc1nc2ccc(Cl)cn2c1C(=O)NCc1ccc(N2CCC(COC)CC2)cc1 [compound 247, 6-Chloro-2-ethyl-N-(4-(4-(methoxymethyl)piperidin-1-yl)benzyl)imidazo[1,2-a]pyridine-3-carboxamide] | 40 to 69% | 162.1 °C | 
CCc1nc2cc(C)ccn2c1C(=O)NCc1ccc2ccccc2c1 [compound 95, 2-Ethyl-7-methyl-N-(naphthalen-2-ylmethyl)imidazo[1,2-a]pyridine-3-carboxamide] | 40 to 69% | 192 °C | 
CCc1nc2c(OC(F)F)cccn2c1C(=O)NCc1ccc(N2CCN(c3ccc(F)cc3)CC2)cc1 [compound 278, 8-(Difluoromethoxy)-2-ethyl-N-(4-(4-(4-fluorophenyl)piperazin-1-yl)benzyl)imidazo[1,2-a]pyridine-3-carboxamide] | 40 to 69% | 186.3 °C | 
CCc1nc2cnccn2c1C(=O)NCc1ccc(OC(F)(F)F)cc1 [compound 141, 2-Ethyl-N-(4-(trifluoromethoxy)benzyl)imidazo[1,2-a]pyrazine-3-carboxamide] | < 40% | 176 to 177 °C | 
CCc1nc2cc(C(F)(F)F)ccn2c1C(=O)NCc1ccc(N2CCOCC2)cc1 [compound 290, 2-Ethyl-N-(4-morpholinobenzyl)-7-(trifluoromethyl)imidazo[1,2-a]pyridine-3-carboxamide] | < 40% | 174.1 °C | 
CCc1nc2ccc(Br)cn2c1C(=O)NCc1ccc(OCc2ccc(OC(F)(F)F)cc2)cc1 [compound 206, 6-Bromo-2-ethyl-N-(4-(4-(trifluoromethoxy)benzyloxy)benzyl)imidazo[1,2-a]pyridine-3-carboxamide] | < 40% | 189.7 °C | 
CCc1nc2cc(Cl)ccn2c1C(=O)NCc1ccc(N2CC(COc3ccc(F)cc3)OC2=O)cc1 (stereo not shown) [compound 378, 7-chloro-2-ethyl-N-(4-(5-((4-fluorophenoxy)methyl)-2-oxooxazolidin-3-yl)benzyl)imidazo[1,2-a]pyridine-3-carboxamide] | < 40% | > 97.1 °C | 
CCc1nc2cc(Cl)ccn2c1C(=O)NCc1ccc(N2CCN(c3ccc(OC(F)(F)F)cc3)CC2)cc1 [compound 159, 7-Chloro-2-ethyl-N-(4-(4-(4-(trifluoromethoxy)phenyl)piperazin-1-yl)benzyl)imidazo[1,2-a]pyridine-3-carboxamide] | 40 to 69% | 216.3 to 217 °C | 
CCc1nc2cccnn2c1CNc1ccc(N2CCN(c3ccc(F)cc3)CC2)cc1 [compound 396, N-((2-Ethylimidazo[1,2-b]pyridazin-3-yl)methyl)-4-(4-(4-fluorophenyl)piperazin-1-yl)aniline] |  | 192.7 °C | > 6.00
CCc1nc2ccc(Cl)cn2c1C(=O)NCc1ccc(N2CCOCC2)c(Cl)c1 [compound 302, 6-Chloro-N-(3-chloro-4-morpholinobenzyl)-2-ethylimidazo[1,2-a]pyridine-3-carboxamide] | < 40% | 175.5 °C | 
CCc1nc2ccc(Cl)cn2c1C(=O)NC1CCN(Cc2ccc(OC(F)(F)F)cc2)CC1 [compound 309, 6-Chloro-2-ethyl-N-(1-(4-(trifluoromethoxy)benzyl)piperidin-4-yl)imidazo[1,2-a]pyridine-3-carboxamide] | 40 to 69% | 157 to 158 °C | 4.70 to 6.00
CCc1nc2cc(Cl)ccn2c1C(=O)NCc1ccc(Oc2ccc(F)cc2)nc1 [compound 188, 7-Chloro-2-ethyl-N-((6-(4-fluorophenoxy)pyridin-3-yl)methyl)imidazo[1,2-a]pyridine-3-carboxamide] | 40 to 69% | 167 to 167.6 °C | 
CCc1nc2ccc(Cl)cn2c1C(=O)NCc1ccc(Oc2ccc(OC(F)(F)F)cc2)nc1 [compound 189, 6-Chloro-2-ethyl-N-((6-(4-(trifluoromethoxy)phenoxy)pyridin-3-yl)methyl)imidazo[1,2-a]pyridine-3-carboxamide] | > 69% | 154 to 155 °C | > 6.00
CCc1nc2ccc(Cl)cn2c1C(=O)NCc1ccc(N2CCCC2)cc1 [compound 191, 6-Chloro-2-ethyl-N-(4-(pyrrolidin-1-yl)benzyl)imidazo[1,2-a]pyridine-3-carboxamide] | < 40% | 222 to 223 °C | 
CCc1nc2ccc(Cl)cn2c1C(=O)NCc1cccc(N(C)Cc2ccc(OC(F)(F)F)cc2)c1 [compound 352, 6-chloro-2-ethyl-N-(3-(methyl(4-(trifluoromethoxy)benz)amino)benzyl)imidazo[1,2-a]pyridine-3-carboxamide] | < 40% | > 142.3 °C (dec.) | 
CCc1nc2ccc(Cl)cn2c1C(=O)NCCc1ccc(OC)cc1 [compound 136, 6-Chloro-2-ethyl-N-(4-methoxyphenethyl)imidazo[1,2-a]pyridine-3-carboxamide] | < 40% | 129 to 130 °C | 
